From ChEMBL document CHEMBL2424632, “Substituted 2-hydroxy-N-(arylalkyl)benzamides induce apoptosis in cancer cell lines” (Eur J Med Chem, 2013)

Each molecule was assayed on K562 (assay: Cytotoxicity against human K562 cells after 72 hrs by calcein-AM assay). Settings: K562, 72 h.
Type: functional, cell-based
For `CC(C)[C@H](NC(=O)c1cc(Cl)ccc1O)C(=O)Nc1cccc(Cl)c1`, the IC50 was > 10 µM. `O=C(N[C@@H](Cc1ccccc1)C(=O)Nc1cccc(Cl)c1)c1cc(Cl)ccc1O` was tested, and the IC50 was > 10 µM. With `C[C@@H](NC(=O)c1ccc(Cl)cc1O)C(=O)Nc1ccc(Cl)cc1` the IC50 was > 10 µM. `COc1ccc(NC(=O)[C@@H](NC(=O)c2cc(Cl)ccc2O)C(C)C)cc1` was tested, and the IC50 was > 10 µM. For `C[C@H](NC(=O)c1ccc(Cl)cc1O)C(=O)Nc1ccc(Cl)cc1`, the IC50 was > 10 µM. `C[C@@H](NC(=O)c1cc(Cl)ccc1O)C(=O)Nc1ccc(Cl)cc1` was tested, and the IC50 was > 20 µM. With `O=C(N[C@H](Cc1ccccc1)C(=O)Nc1ccc(Cl)cc1)c1ccc(Cl)cc1O` the IC50 was > 10 µM. For `Cc1ccc(NC(=O)c2ccc(CN3CCN(C)CC3)cc2)cc1Nc1nccc(-c2cccnc2)n1` [IMATINIB], the IC50 was 0.5 µM. `CC(C)[C@H](NC(=O)c1ccc(Cl)cc1O)C(=O)Nc1ccc(Cl)c(Cl)c1` was tested, and the IC50 was > 10 µM.

These molecules were tested on MCF7 (assay: Cytotoxicity against human MCF7 cells after 72 hrs by calcein-AM assay). Settings: MCF7, 72 h.
Type: functional, cell-based
`CC(C)[C@H](NC(=O)c1cc(Cl)ccc1O)C(=O)Nc1cccc(Cl)c1` was tested, and the IC50 was > 10 µM. With `O=C(N[C@@H](Cc1ccccc1)C(=O)Nc1cccc(Cl)c1)c1cc(Cl)ccc1O` the IC50 was > 10 µM. For `C[C@@H](NC(=O)c1ccc(Cl)cc1O)C(=O)Nc1ccc(Cl)cc1`, the IC50 was > 10 µM. For `COc1ccc(NC(=O)[C@@H](NC(=O)c2cc(Cl)ccc2O)C(C)C)cc1`, the IC50 was > 10 µM. For `C[C@H](NC(=O)c1ccc(Cl)cc1O)C(=O)Nc1ccc(Cl)cc1`, the IC50 was > 10 µM. With `C[C@@H](NC(=O)c1cc(Cl)ccc1O)C(=O)Nc1ccc(Cl)cc1` the IC50 was > 20 µM. For `O=C(N[C@H](Cc1ccccc1)C(=O)Nc1ccc(Cl)cc1)c1ccc(Cl)cc1O`, the IC50 was > 10 µM. For `Cc1ccc(NC(=O)c2ccc(CN3CCN(C)CC3)cc2)cc1Nc1nccc(-c2cccnc2)n1` [IMATINIB], the IC50 was > 10 µM. With `CC(C)[C@H](NC(=O)c1ccc(Cl)cc1O)C(=O)Nc1ccc(Cl)c(Cl)c1` the IC50 was > 10 µM.
